The target of the assay is wild-type PA-Nter (Influenza A virus, UniProt C3W5S0, DEL51-57/DEL61-72/E59G). Type of assay: biochemical, influenza A/California/07/2009 (H1N1).

The structures appear in SMILES notation.

Turning to `O=c1cc(-c2ccc(O)c(O)c2)oc2c([C@@H]3O[C@H](CO)[C@@H](O)[C@H](O)[C@H]3O)c(O)cc(O)c12` [orientin], the “inhibition of endonuclease activity, gel-based assay (qualitative)” value is listed as “higher inhibitory potency than luteolin”.
